{"source": "patent US10166302B2", "about": "“Labeling composition for cancer lesion” (NATIONAL CANCER CENTER, priority 2012, dated 2019)", "key": {"[1]": {"conditions": "18 breast cancer patients (T. Kitai, et al., Breast Cancer, 12:211-215, 2005); cited from earlier work"}, "[2]": {"assay": "Signal intensity of near-infrared fluorescence of ICG-MAA complexes at various ICG and MAA mixing ratios", "format": "physicochemical", "conditions": "for Signal intensity of near-infrared fluorescence: MAA 0 mg/ml"}}, "data": [{"molecule": "CC1(C)C(/C=C/C=C/C=C/C=C2\\N(CCCCS(=O)(=O)O)c3ccc4ccccc4c3C2(C)C)=[N+](CCCCS(=O)(=O)[O-])c2ccc3ccccc3c21", "note": "[ICG, indocyanine green]", "values": [{"measurement": "Clinical safety", "setting": "[1]", "result": "safely used"}, {"measurement": "Signal intensity of near-infrared fluorescence", "setting": "[2]; ICG 9.0 μM", "result": 289}, {"measurement": "Signal intensity of near-infrared fluorescence", "setting": "[2]; ICG 12.9 μM", "result": 363}, {"measurement": "Signal intensity of near-infrared fluorescence", "setting": "[2]; ICG 25.8 μM", "result": 466}, {"measurement": "Signal intensity of near-infrared fluorescence", "setting": "[2]; ICG 38.7 μM", "result": 425}, {"measurement": "Signal intensity of near-infrared fluorescence", "setting": "[2]; ICG 51.6 μM", "result": 399}, {"measurement": "Signal intensity of near-infrared fluorescence", "setting": "[2]; ICG 64.5 μM", "result": 374}, {"measurement": "Signal intensity of near-infrared fluorescence", "setting": "[2]; ICG 77.4 μM", "result": 332}, {"measurement": "Signal intensity of near-infrared fluorescence", "setting": "[2]; ICG 103 μM", "result": 289}, {"measurement": "Signal intensity of near-infrared fluorescence", "setting": "[2]; ICG 258 μM", "result": 139}, {"measurement": "Signal intensity of near-infrared fluorescence", "setting": "[2]; ICG 516 μM", "result": 71}, {"measurement": "Signal intensity of near-infrared fluorescence", "setting": "[2]; ICG 774 μM", "result": 39}, {"measurement": "Signal intensity of near-infrared fluorescence", "setting": "[2]; ICG 1032 μM", "result": 30}, {"measurement": "ICG concentration showing the highest value of signal intensity of near-infrared fluorescence", "setting": "[2]; MAA was not treated", "result": 25.8, "unit": "µM"}]}]}
